Measured values taken from ChEMBL document CHEMBL1201862, “PubChem BioAssay data set” (2004).
Active and inactive are the calls of the source.

Key:
[1] = test system: Streptococcus sp. 'group A'; experiment: growth inhibition of control SK(-) GAS strain, dose response, counter-screen for streptokinase expression inhibitor project, luminescence, kanamycin, BacTiterGlo, confirmation (AID 1900); assay type: functional, organism-based
Streptokinase A = target: T1, Streptokinase A (Streptococcus pyogenes serotype M1, UniProt P10520); experiment: S. pyogenes streptokinase expression inhibitors, potency, dose response, plasminogen activation absorbance, OD405 (AID 1914); assay type: functional, Streptococcus pyogenes M1 GAS;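 note: secreted streptokinase activity via plasminogen activation per viability signal from cell pellet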
T1 sequence (P10520 whole entry): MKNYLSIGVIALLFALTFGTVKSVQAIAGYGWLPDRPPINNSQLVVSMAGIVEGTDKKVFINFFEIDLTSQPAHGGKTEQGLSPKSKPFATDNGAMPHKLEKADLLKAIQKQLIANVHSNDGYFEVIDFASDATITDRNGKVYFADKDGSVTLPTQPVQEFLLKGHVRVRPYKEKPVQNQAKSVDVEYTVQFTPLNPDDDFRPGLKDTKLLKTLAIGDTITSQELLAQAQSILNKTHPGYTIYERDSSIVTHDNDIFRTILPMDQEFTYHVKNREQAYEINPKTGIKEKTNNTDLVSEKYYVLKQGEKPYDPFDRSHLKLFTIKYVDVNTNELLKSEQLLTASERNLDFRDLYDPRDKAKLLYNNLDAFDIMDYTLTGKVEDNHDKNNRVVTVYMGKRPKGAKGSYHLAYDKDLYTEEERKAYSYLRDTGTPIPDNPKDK

Streptococcus = experiment: Group A Streptococcus viability loss, dose response, counter-screen for streptokinase expression inhibitor project, luminescence, BacTiterGlo (AID 1915); assay type: functional, organism-based;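 note: potency for reduction of bacterial viability or growth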
[2] = target: T2, Type-1 angiotensin II receptor (Homo sapiens, UniProt P30556); experiment: AT1 receptor agonists, dose response, selectivity assay for APJ receptor agonist project, cell-based, uHTS hits (AID 488865); assay type: functional;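 note: beta-arrestin recruitment to AT1 measured by enzyme fragment complementation luminescence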
T2 sequence (P30556 whole entry): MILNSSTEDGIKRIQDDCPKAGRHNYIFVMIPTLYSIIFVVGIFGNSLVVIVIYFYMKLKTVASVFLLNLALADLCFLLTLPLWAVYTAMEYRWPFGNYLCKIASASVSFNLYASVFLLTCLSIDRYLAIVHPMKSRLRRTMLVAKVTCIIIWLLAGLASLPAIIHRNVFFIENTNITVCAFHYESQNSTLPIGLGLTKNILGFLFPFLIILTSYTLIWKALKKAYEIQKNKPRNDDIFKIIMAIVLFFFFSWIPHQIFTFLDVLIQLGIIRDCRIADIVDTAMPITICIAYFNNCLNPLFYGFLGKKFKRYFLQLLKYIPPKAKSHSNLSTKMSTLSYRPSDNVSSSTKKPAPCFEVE

INS1 = experiment: beta cell apoptosis inhibitors, cytokine rescue, dose response, luminescence, retest (AID 449756); assay type: functional, cell-based; conditions: Rattus norvegicus;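 note: cell death triggered by IL-1 beta plus TNF-alpha plus IFN-gamma mixture; protective hits raise ATP signal compared with cytokine alone wells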
[3] = A549 cell cytotoxicity, dose response, cytotoxicity control, plate reader, cherry-pick, antagonist series (AID 743412); assay type: functional, cell-based
[4] = HepG2 cell cytotoxicity, dose response, cytotoxicity control, plate reader, cherry-pick, antagonist series (AID 743416); assay type: functional, cell-based
[5] = LGR2 antagonists, dose response, cell-based, HEK293, CRE-luciferase reporter, cherry pick, set 2 (AID 743343); assay type: functional;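 note: transfected cells were stimulated with diluted bursicon conditioned medium after compound addition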
[6] = MC4R antagonists, dose response, counter-screen for LGR2 antagonist project, cell-based, plate reader, cherry pick (AID 743444); assay type: functional;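 note: transfected HEK 293 cells stimulated with alpha-MSH peptide; potency of inhibitors of the alpha-MSH evoked signal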
[7] = HEK293 cell cytotoxicity, dose response, cytotoxicity control, plate reader, cherry-picked samples (AID 743446); assay type: functional, cell-based
Vibrio harveyi [8] = experiment: Quorum Sensing, LuxS, LuxPQ Measured in Microorganism System Using Plate Reader - 2035-01_Inhibitor_DoseNoFile_DryPowder_Activity. [Related pubchem assays (depositor defined):AID2106]; assay type: functional, organism-based
Vibrio harveyi [9] = experiment: inhibitors of AI-2 quorum sensing in V. harveyi, dose response, LuxS, LuxPQ, dry powder, set 2 (AID 493072); assay type: functional, organism-based
[10] = target: DNA damage-inducible transcript 3 protein (Mus musculus, UniProt P35639); assay type: functional, Cricetulus griseus
T-cell = experiment: inhibitors of CD8+ T cell–vesicle binding, dose response, mouse 2C CD8+ T cells, flow cytometry (AID 485284); assay type: functional
Cannabinoid receptor 2 [11] = target: T3, Cannabinoid receptor 2 (Homo sapiens, UniProt P34972); experiment: SAR analysis of antagonists of the Cannabinoid Receptor 2 using an Image-Based Assay - Set 2. [Related pubchem assays (depositor defined):AID1961, AID1965]; assay type: functional
[12] = target: G-protein coupled receptor 55 (Homo sapiens, UniProt Q9Y2T6); experiment: SAR analysis of selective Agonists of GPR55 using an Image-Based Assay - Set 2. [Related pubchem assays (depositor defined):AID1961, AID1965]; assay type: functional
Cannabinoid receptor 2 [13] = target: T3, Cannabinoid receptor 2; experiment: SAR analysis of agonists of the Cannabinoid Receptor 2 using an Image-Based Assay - Set 2. [Related pubchem assays (depositor defined):AID1961, AID1965]; assay type: functional
[14] = target: T4, G-protein coupled receptor 35 (Homo sapiens, UniProt Q9HC97); experiment: SAR analysis of Agonists of the GPR35 Receptor using an Image-Based Assay - Set 3. [Related pubchem assays (depositor defined):AID1961, AID1965]; assay type: functional
Cannabinoid receptor 1 [15] = target: T5, Cannabinoid receptor 1 (Homo sapiens, UniProt P21554); experiment: SAR analysis of antagonists of the Cannabinoid Receptor 1 using an Image-Based Assay - Set 3. [Related pubchem assays (depositor defined):AID1961, AID1965]; assay type: functional
Cannabinoid receptor 1 [16] = target: T5, Cannabinoid receptor 1; experiment: SAR analysis of agonists of the Cannabinoid Receptor 1 using an Image-Based Assay - Set 3. [Related pubchem assays (depositor defined):AID1961, AID1965]; assay type: functional
[17] = target: T4, G-protein coupled receptor 35; experiment: SAR analysis of Antagonists of the GPR35 Receptor using an Image-Based Assay - Set 4. [Related pubchem assays (depositor defined):[…]]; assay type: functional
Leucine aminopeptidase = target: T6, Leucine aminopeptidase (Plasmodium falciparum 3D7, UniProt Q8IL11); experiment: P. falciparum M17LAP inhibitors, primary screen, biochemical, fluorogenic H-Leu-NHMec substrate, 1536-well (AID 1619); assay type: functional
T6 sequence (Q8IL11 whole entry): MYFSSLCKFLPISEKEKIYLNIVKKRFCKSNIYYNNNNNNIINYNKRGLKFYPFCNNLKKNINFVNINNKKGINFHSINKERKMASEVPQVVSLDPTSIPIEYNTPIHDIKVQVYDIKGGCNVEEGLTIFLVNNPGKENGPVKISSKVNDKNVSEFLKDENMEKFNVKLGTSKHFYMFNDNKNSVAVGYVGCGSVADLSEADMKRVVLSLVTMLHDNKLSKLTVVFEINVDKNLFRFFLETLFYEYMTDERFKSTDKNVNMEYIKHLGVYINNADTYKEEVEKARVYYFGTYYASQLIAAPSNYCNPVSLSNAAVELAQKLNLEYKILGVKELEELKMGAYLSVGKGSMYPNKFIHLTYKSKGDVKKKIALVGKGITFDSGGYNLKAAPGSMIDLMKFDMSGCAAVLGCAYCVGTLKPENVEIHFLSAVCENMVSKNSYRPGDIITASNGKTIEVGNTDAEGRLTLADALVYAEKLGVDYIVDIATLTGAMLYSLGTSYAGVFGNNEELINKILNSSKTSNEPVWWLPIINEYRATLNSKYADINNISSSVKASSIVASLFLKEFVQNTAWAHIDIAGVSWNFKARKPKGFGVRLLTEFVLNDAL

[18] = Intein inhibitors as potential Tuberculosis drugs, a cytotoxicity screen. [Related pubchem assays (depositor defined):AID2221, AID2223, AID434968, AID435010, AID449749, AID449750, AID489010]; assay type: functional
[19] = target: T7, Replicative DNA helicase DnaB (Mycobacterium tuberculosis, UniProt P9WMR3); experiment: DnaB intein splicing inhibitors, dose response, biochemical, cell-free fluorescence (AID 449749); assay type: functional
T7 sequence (P9WMR3 whole entry): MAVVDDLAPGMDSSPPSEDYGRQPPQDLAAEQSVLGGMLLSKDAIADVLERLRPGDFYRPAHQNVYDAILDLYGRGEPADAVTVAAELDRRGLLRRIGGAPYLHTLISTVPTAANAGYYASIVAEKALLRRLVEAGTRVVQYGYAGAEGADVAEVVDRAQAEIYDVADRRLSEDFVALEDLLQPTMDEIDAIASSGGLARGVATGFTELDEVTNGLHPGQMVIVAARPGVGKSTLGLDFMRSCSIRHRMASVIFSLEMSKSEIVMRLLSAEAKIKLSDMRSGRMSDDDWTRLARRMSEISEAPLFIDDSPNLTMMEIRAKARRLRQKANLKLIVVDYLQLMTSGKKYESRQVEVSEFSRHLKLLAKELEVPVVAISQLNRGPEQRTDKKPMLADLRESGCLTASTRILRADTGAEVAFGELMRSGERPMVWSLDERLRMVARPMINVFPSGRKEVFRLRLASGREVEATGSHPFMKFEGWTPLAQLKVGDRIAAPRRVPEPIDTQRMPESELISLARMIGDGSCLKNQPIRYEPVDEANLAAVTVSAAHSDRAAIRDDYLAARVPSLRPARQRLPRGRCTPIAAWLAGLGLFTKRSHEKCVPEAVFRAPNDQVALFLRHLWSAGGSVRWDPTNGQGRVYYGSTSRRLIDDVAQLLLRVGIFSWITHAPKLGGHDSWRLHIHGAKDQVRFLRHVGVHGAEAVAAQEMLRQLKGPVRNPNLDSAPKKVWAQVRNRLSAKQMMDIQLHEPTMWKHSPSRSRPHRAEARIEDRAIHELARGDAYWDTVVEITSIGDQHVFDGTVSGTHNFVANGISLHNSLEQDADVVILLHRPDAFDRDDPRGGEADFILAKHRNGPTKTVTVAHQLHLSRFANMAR

Protein RecA = target: T8, Protein RecA (Mycobacterium tuberculosis, UniProt P9WHJ3); experiment: Fluorescence Cell-Free Homogeneous Dose Retest to Identify Inhibitors of RecA-Intein Splicing Activity. [Related pubchem assays (depositor defined):AID2097, AID2223, AID489010, AID492950]; assay type: functional
T8 sequence (P9WHJ3 whole entry): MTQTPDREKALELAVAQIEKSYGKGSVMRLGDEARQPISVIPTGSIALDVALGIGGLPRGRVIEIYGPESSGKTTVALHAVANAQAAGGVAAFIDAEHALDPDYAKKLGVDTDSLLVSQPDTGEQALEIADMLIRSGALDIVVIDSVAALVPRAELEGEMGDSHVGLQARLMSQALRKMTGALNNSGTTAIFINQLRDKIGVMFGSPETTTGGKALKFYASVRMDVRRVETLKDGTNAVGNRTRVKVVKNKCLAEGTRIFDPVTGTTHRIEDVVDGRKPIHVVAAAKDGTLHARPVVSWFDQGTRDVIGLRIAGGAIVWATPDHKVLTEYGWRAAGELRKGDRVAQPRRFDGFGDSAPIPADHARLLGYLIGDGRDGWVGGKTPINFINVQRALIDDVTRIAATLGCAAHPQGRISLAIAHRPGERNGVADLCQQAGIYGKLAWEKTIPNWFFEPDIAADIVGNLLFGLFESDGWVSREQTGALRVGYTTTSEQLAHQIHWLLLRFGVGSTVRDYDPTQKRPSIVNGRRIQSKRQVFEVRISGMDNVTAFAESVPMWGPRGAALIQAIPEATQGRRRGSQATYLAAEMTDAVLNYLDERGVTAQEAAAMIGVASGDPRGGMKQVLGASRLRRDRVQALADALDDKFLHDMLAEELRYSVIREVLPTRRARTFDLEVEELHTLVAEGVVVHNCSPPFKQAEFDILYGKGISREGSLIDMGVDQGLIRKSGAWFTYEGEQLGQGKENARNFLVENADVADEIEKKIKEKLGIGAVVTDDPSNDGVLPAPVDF
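Throughout, for CC50: cells exposed to compound for 72 hours before luminescence readout.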

T3 sequence (P34972 whole entry): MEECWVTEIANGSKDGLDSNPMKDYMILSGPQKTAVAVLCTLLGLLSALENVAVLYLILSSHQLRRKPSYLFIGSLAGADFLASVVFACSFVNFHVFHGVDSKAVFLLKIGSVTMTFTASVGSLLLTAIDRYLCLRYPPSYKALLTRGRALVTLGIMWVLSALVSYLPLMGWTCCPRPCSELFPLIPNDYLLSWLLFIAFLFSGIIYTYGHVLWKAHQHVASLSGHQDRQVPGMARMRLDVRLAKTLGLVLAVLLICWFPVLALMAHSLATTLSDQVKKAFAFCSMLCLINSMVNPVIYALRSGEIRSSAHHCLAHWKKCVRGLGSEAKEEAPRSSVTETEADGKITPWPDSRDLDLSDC
T4 sequence (Q9HC97 whole entry): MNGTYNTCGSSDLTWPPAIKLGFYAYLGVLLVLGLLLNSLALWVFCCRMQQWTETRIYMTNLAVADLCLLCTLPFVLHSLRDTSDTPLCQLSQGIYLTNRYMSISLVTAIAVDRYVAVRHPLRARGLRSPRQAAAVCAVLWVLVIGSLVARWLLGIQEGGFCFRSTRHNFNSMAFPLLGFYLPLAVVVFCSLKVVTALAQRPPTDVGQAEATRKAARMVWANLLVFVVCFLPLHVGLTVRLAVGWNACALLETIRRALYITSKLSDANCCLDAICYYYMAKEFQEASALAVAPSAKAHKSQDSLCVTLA
T5 sequence (P21554 whole entry): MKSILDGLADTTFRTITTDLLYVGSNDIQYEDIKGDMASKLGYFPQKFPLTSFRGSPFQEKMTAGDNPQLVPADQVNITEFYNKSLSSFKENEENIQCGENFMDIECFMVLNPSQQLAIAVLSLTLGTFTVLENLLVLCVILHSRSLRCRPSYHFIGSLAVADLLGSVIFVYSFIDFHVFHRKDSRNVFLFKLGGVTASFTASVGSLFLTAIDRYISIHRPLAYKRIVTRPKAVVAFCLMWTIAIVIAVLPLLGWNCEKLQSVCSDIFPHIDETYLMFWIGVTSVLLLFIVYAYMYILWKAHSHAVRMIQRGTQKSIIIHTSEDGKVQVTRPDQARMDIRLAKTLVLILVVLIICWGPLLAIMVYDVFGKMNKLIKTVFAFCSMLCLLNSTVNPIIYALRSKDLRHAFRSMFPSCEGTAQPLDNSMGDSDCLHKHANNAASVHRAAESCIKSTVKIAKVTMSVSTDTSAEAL
DNA damage-inducible transcript 3 protein, sequence (P35639 whole entry): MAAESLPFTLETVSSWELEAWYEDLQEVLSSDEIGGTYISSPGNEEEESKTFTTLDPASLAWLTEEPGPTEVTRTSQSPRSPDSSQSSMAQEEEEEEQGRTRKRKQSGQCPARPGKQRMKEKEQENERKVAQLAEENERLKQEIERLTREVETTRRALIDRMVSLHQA
G-protein coupled receptor 55, sequence (Q9Y2T6 whole entry): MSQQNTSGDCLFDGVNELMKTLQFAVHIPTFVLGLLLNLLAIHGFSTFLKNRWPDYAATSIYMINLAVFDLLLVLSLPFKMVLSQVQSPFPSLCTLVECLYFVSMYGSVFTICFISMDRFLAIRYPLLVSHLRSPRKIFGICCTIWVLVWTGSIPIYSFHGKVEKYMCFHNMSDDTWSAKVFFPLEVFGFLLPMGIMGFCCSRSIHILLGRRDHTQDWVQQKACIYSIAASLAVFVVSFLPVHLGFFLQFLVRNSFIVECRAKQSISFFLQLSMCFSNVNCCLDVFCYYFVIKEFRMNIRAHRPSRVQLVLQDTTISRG

## CCCCNc1c(-c2cccc(-c3ccc(OC)cc3)c2)nc2ccc(C)cn12
[1]
  EC50: 4.54 µM (active)
Streptokinase A
  EC50: 7.94 µM (active)
Streptococcus
  EC50: 13.3 µM (active)
[2]
  EC50: > 100 µM (inactive)
INS1
  AC50: 7.86 µM (active)
[3]
  AC50: 28.7 µM (active)
[4]
  AC50: 28.4 µM (active)
[5]
  AC50: 10.7 µM (active)
[6]
  AC50: 11 µM (active)
[7]
  AC50: 29.6 µM (active)

## O=C1C=C/C(=C/Br)O1
Vibrio harveyi [8]
  AC50: 4.81 µM (active)
Vibrio harveyi [9]
  AC50: 3.1 µM (active)

## O=C(Cc1csc(Nc2nc(S)nc3ccccc23)n1)NCCCN1CCN(c2ccccc2F)CC1
[10]
  Absolute IC50 (CHOP): 10 µM

## CN(Cc1ccccc1)C(=O)c1ccc(NC(=O)Cc2cccc(NC(=O)C3CCCN(C(=O)C4CCC4)C3)c2)cc1 (stereo not given)
T-cell
  EC50: 5.41 µM (active)

## COc1ccc(-c2csc(NC(=O)CSc3nnc4c(C)cc5cc6c(cc5n34)OCCO6)n2)cc1
Cannabinoid receptor 2 [11]
  IC50: > 32 µM (inactive)
[12]
  EC50: > 32 µM (inactive)
Cannabinoid receptor 2 [13]
  EC50: > 32 µM (inactive)
[14]
  EC50: > 32 µM (inactive)
Cannabinoid receptor 1 [15]
  IC50: > 32 µM (inactive)
Cannabinoid receptor 1 [16]
  EC50: > 32 µM (inactive)
[17]
  IC50: > 32 µM (inactive)

## N#CC1=C(N)Oc2[nH]nc(-c3ccccc3)c2C1c1ccsc1 (stereo not given)
Leucine aminopeptidase
  IC50: 64.5 µM (active)
[18]
  CC50: > 40 µM (active)
[19]
  AC50: 0.142 µM (active)
Protein RecA
  EC50: 0.731 µM (active)
